Common to all, as to assay type: functional
The test system of assay [1] is Escherichia coli. In words: Antimicrobial activity against Escherichia coli NIHJ JC-2 after 2 days. As to conditions: 48 h.
Another assay deals with Candida albicans. The experiment in a line: Antimicrobial activity against Candida albicans TA.
For assay [2], the system named is Escherichia coli. The experiment in a line: Antimicrobial activity against Escherichia coli 0-111 after 2 days. As to conditions: 48 h.
In a further assay the test system is Klebsiella pneumoniae. In words: Antimicrobial activity against Klebsiella pneumoniae DA after 2 days. As to conditions: 48 h.

In brackets after ≈: the same amount, converted by molar mass.

Consider `CN1[C@@H]([C@@H]2SSC[C@@H]2O)CC[C@@H]1[C@@H]1SSC[C@@H]1O` [GERRARDINE], for which the MIC (usually the least concentration at which growth counts as inhibited) against Escherichia coli [1] was determined as 100 µg/mL (≈ 307 µM); in the assay with Candida albicans it was 50 µg/mL (≈ 154 µM); in the assay on Escherichia coli [2], 100 µg/mL (≈ 307 µM); against Klebsiella pneumoniae, 100 µg/mL (≈ 307 µM).

Source of the values: ChEMBL document CHEMBL1151622, “Occurrence of gerrardine in Cassipourea guianensis” (1984).
